Measured values: patent US20230028441A1, “NOVEL HETEROARYL-TRIAZOLE COMPOUNDS AS PESTICIDES” (Bayer Aktiengesellschaft, priority 2019, published 2023)

Key:
Format in all cases: in vivo
[1] = system: adult engorged female ticks (Rhipicephalus microplus); experiment: Rhipicephalus (Boophilus) microplus injection test; conditions: 168 h, egg deposition after 7 days, read-out: efficacy (infertile eggs); for pest or weed control at 0.004 mg: 4 μg/animal
Method in brief: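 Efficacy is the share of infertile eggs: 100% means none are fertile, 0% means all are fertile. Egg deposition was checked 7 days after injecting 1 μL of DMSO-diluted compound into the abdomen of five engorged female R. microplus, with doubtful eggs kept about 42 days to hatching. The stock was 10 mg in 0.5 mL DMSO.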

[2] = system: cattle tick larvae (Rhipicephalus microplus), strain Parkhurst, resistant against synthetic pyrethroids; experiment: Rhipicephalus (Boophilus) microplus in-vitro contact test, larval cattle tick; conditions: 5 μg/cm^2 (=500 g/ha), after 48 hours, read-out: efficacy (larvae dead or moribund)
Method in brief: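 Efficacy, 100% meaning all larvae dead or moribund, was judged at 48 h from loss of negative geotactic climbing. Larvae of the Parkhurst strain, 20–50 per tube, were exposed at 27° C and 85% humidity to acetone-coated tube surfaces; 900 ppm corresponded to 5 μg/cm^2.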

[3] = system: fall armyworm larvae (Spodoptera frugiperda); experiment: Spodoptera frugiperda spray test (maize leaf sections); conditions: 168 h
Method in brief: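 Percent kill of Spodoptera frugiperda larvae was recorded 7 days after infesting dried, treated maize leaf sections. Spray solutions were made from an acetone/DMF compound preparation diluted with 1000 ppm emulsifier-containing water.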

[4] = system: brown planthopper (Nilaparvata lugens); experiment: Nilaparvata lugens spray test; conditions: in Oryza sativa, 96 h
Method in brief: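 Rice plants (Oryza sativa) sprayed with compound in acetone/DMF diluted in water containing 1000 ppm alkylarylpolyglycol ether emulsifier, then infested with planthoppers. Mortality % scored after 4 days (100% = all killed, 0% = none killed).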

[5] = system: adult cat fleas (Ctenocephalides felis); experiment: Ctenocephalides felis in-vitro contact test, adult cat flea; conditions: 5 μg/cm^2 (=500 g/ha), after 48 hours, read-out: efficacy (fleas dead or moribund)
Method in brief: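 Efficacy (%) counts fleas that are dead or moribund, meaning unable to escape heat (45-50 °C, ≤5 min) by climbing. Scoring was done 48 h after 5-10 adults were placed at room temperature in glass tubes. The tubes carried a dried acetone film of compound, 5 μg/cm^2 at 900 ppm.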

[6] = system: larvae of the banded cucumber beetle (Diabrotica balteata); experiment: Diabrotica balteata spray test; conditions: 168 h, after 7 days, wheat seeds, read-out: efficacy (seedlings grown up); for pest or weed control at 32 µg/disc, 100 g/ha: 100 g/ha (=32 μg/well)
Method in brief: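 Efficacy (%) read at day 7: 100% means seedlings grew like untreated, uninfested controls; 0% means no seedlings grew. Wheat seeds germinated 1 day on agar, sprayed with emulsified compound solution (1000 ppm emulsifier in water), then each well infested with 10-20 larvae.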

[7] = system: adult unfed cat fleas (Ctenocephalides felis); experiment: Ctenocephalides felis oral test; conditions: 48 h, 100 ppm in cattle blood, after 2 days
Method in brief: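 Percent flea mortality recorded at 2 days. Compound was dissolved in dimethyl sulfoxide and diluted into cattle blood, which ~20 unfed adult cat fleas ingested through parafilm from a 37°C-heated chamber, their own chamber kept at room temperature.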

[8] = system: Aedes aegypti strain MONHEIM; experiment: Aedes aegypti test (AEDSAE surface treatment & contact assay); conditions: 24 hours after contact, read-out: efficacy (mortality); for mortality at 4 mg/m2: surface concentration 4 mg/m^2, 30 minutes exposure; for mortality at 20 mg/m2: surface concentration 20 mg/m^2, 30 minutes exposure
Description: (§1) Solvent: Aceton+2000 ppm rapeseed oil methyl ester (RME)
(§2) In order to produce a sufficient, active ingredient containing solution it is necessary to solve the test compound in the solvent-mix (acetone at 2 mg/ml/RME 2000 ppm). This solution is pipetted onto a glazed tile and after evaporation of the acetone, adult mosquitoes of the species Aedes aegypti strain MONHEIM are placed onto the dried surface. The exposure time is 30 minutes. Mortality in percent (%) is determined 24 hours after contact of the insects to the treated surface. 100% mortality means that all tested insects are dead, whereas 0% means that no insect died.

[9] = system: Musca domestica strain WHO-N; experiment: Musca domestica test (MUSCDO surface treatment & contact assay); conditions: 24 hours after contact, read-out: efficacy (mortality); for mortality at 4 mg/m2: surface concentration 4 mg/m^2, 30 minutes exposure; for mortality at 20 mg/m2: surface concentration 20 mg/m^2, 30 minutes exposure
Description: as §1
as §2, with “flies” for “mosquitoes”, “Musca domestica” for “Aedes aegypti”, “WHO-N” for “MONHEIM”

Row | Compound | pest or weed control at 0.004 mg [1] [%] | pest or weed control at 5 µg/cm2 [2] [%] | mortality at 100 g/ha [3] [%] | mortality at 100 g/ha [4] [%] | pest or weed control at 5 µg/cm2 [5] [%] | pest or weed control at 32 µg/disc, 100 g/ha [6] [%] | mortality at 100 ppm [7] [%] | mortality at 4 mg/m2 [8] [%] | mortality at 20 mg/m2 [8] [%] | mortality at 4 mg/m2 [9] [%] | mortality at 20 mg/m2 [9] [%] | pest or weed control at 0.02 mg ([1]; 20 μg/animal) [%] | mortality at 500 g/ha [3] [%] | mortality at 500 g/ha [4] [%] | pest or weed control at 160 µg/disc, 500 g/ha ([6]; 500 g/ha (=160 μg/well)) [%]
1 | CNc1nc(C(C)NC(=O)c2cc(C(F)(F)F)cc(C(F)(F)F)c2)n(-c2ncccn2)n1 (stereo not shown) [I-088] | 100 | 100 | 100 | 100 | 100 | 100 | 100 | 90 to 100 | 90 to 100 | 90 to 100 | 90 to 100 |  |  |  | 
2 | CC(NC(=O)c1cc(Cl)cc(C(F)(F)F)c1)c1nc(N)nn1-c1ccc(Cl)cn1 (racemic) [I-006, N-[1-[5-amino-2-(5-chloro-2-pyridyl)-1,2,4-triazol-3-yl]ethyl]-3-chloro-5-(trifluoromethyl)benzamide] | 100 | 100 | 100 |  | 100 | 100 | 100 | 90 to 100 | 90 to 100 | 90 to 100 | 90 to 100 | 100 | 100 | 90 | 100
